Measurements published in ChEMBL document CHEMBL2202954, “The effect of PLC-γ2 inhibitors on the growth of human tumour cells” (2012).

What was measured:
Type in all cases: functional
RPMI-8226 = experiment: Cytotoxicity against human RPMI8226 cells assessed as cellular growth at 10 uM by SRB assay
BT-549 = experiment: Cytotoxicity against human BT549 cells assessed as cellular growth at 10 uM by SRB assay
NCI-H460 = experiment: Cytotoxicity against human NCI-H460 cells assessed as cellular growth at 10 uM by SRB assay
MDA-MB-435 = experiment: Cytotoxicity against human MDA-MB-435 cells assessed as cellular growth at 10 uM by SRB assay
MOLT-4 = experiment: Cytotoxicity against human MOLT4 cells assessed as cellular growth at 10 uM by SRB assay
LOX IMVI = experiment: Cytotoxicity against human LOXIMVI cells assessed as cellular growth at 10 uM by SRB assay
CCRF-CEM = experiment: Cytotoxicity against human CCRF-CEM cells assessed as cellular growth at 10 uM by SRB assay
786-0 = experiment: Cytotoxicity against human 786-0 cells assessed as cellular growth at 10 uM by SRB assay
A549 = experiment: Cytotoxicity against human A549 cells assessed as cellular growth at 10 uM by SRB assay
EKVX = experiment: Cytotoxicity against human EKVX cells assessed as cellular growth at 10 uM by SRB assay
SK-OV-3 = experiment: Cytotoxicity against human SKOV3 cells assessed as cellular growth at 10 uM by SRB assay
OVCAR-4 = experiment: Cytotoxicity against human OVCAR4 cells assessed as cellular growth at 10 uM by SRB assay
HCT-116 = experiment: Cytotoxicity against human HCT116 cells assessed as cellular growth at 10 uM by SRB assay
OVCAR-5 = experiment: Cytotoxicity against human OVCAR5 cells assessed as cellular growth at 10 uM by SRB assay
SNB-19 = experiment: Cytotoxicity against human SNB19 cells assessed as cellular growth at 10 uM by SRB assay
IGROV-1 = experiment: Cytotoxicity against human IGROV1 cells assessed as cellular growth at 10 uM by SRB assay
KM12 = experiment: Cytotoxicity against human KM12 cells assessed as cellular growth at 10 uM by SRB assay
A498 = experiment: Cytotoxicity against human A498 cells assessed as cellular growth at 10 uM by SRB assay
SNB-75 = experiment: Cytotoxicity against human SNB75 cells assessed as cellular growth at 10 uM by SRB assay
T47D = experiment: Cytotoxicity against human T47D cells assessed as cellular growth at 10 uM by SRB assay
CAKI-1 = experiment: Cytotoxicity against human Caki1 cells assessed as cellular growth at 10 uM by SRB assay
NCI-H226 = experiment: Cytotoxicity against human NCI-H226 cells assessed as cellular growth at 10 uM by SRB assay
MDA-MB-231 = experiment: Cytotoxicity against human MDA-MB-231 cells assessed as cellular growth at 10 uM by SRB assay
UACC-62 = experiment: Cytotoxicity against human UACC62 cells assessed as cellular growth at 10 uM by SRB assay
HOP-62 = experiment: Cytotoxicity against human HOP62 cells assessed as cellular growth at 10 uM by SRB assay
PC-3 = experiment: Cytotoxicity against human PC3 cells assessed as cellular growth at 10 uM by SRB assay
HCT-15 = experiment: Cytotoxicity against human HCT15 cells assessed as cellular growth at 10 uM by SRB assay
HT-29 = experiment: Cytotoxicity against human HT-29 cells assessed as cellular growth at 10 uM by SRB assay
NCI-H522 = experiment: Cytotoxicity against human NCI-H522 cells assessed as cellular growth at 10 uM by SRB assay
UACC-257 = experiment: Cytotoxicity against human UACC257 cells assessed as cellular growth at 10 uM by SRB assay
SW-620 = experiment: Cytotoxicity against human SW620 cells assessed as cellular growth at 10 uM by SRB assay
ACHN = experiment: Cytotoxicity against human ACHN cells assessed as cellular growth at 10 uM by SRB assay
RXF 393 = experiment: Cytotoxicity against human RXF393 cells assessed as cellular growth at 10 uM by SRB assay
SK-MEL-5 = experiment: Cytotoxicity against human SK-MEL-5 cells assessed as cellular growth at 10 uM by SRB assay
MDA-MB-468 = experiment: Cytotoxicity against human MDA-MB-468 cells assessed as cellular growth at 10 uM by SRB assay
HL-60(TB) = experiment: Cytotoxicity against human HL-60(TB) cells assessed as cellular growth at 10 uM by SRB assay
SK-MEL-28 = experiment: Cytotoxicity against human SK-MEL-28 cells assessed as cellular growth at 10 uM by SRB assay
M14 = experiment: Cytotoxicity against human M14 cells assessed as cellular growth at 10 uM by SRB assay
HCC 2998 = experiment: Cytotoxicity against human HCC2998 cells assessed as cellular growth at 10 uM by SRB assay
SF-539 = experiment: Cytotoxicity against human SF539 cells assessed as cellular growth at 10 uM by SRB assay
OVCAR-8 = experiment: Cytotoxicity against human OVCAR8 cells assessed as cellular growth at 10 uM by SRB assay
UO-31 = experiment: Cytotoxicity against human UO31 cells assessed as cellular growth at 10 uM by SRB assay
SN12C = experiment: Cytotoxicity against human SN12C cells assessed as cellular growth at 10 uM by SRB assay
NCI-H23 = experiment: Cytotoxicity against human NCI-H23 cells assessed as cellular growth at 10 uM by SRB assay
[1] = Cytotoxicity against human NCI-ADR-RES cells assessed as cellular growth at 10 uM by SRB assay
K562 = experiment: Cytotoxicity against human K562 cells assessed as cellular growth at 10 uM by SRB assay
Hs-578T = experiment: Cytotoxicity against human Hs578T cells assessed as cellular growth at 10 uM by SRB assay
COLO 205 = experiment: Cytotoxicity against human COLO205 cells assessed as cellular growth at 10 uM by SRB assay
NCI-H322M = experiment: Cytotoxicity against human NCI-H322M cells assessed as cellular growth at 10 uM by SRB assay
SK-MEL-2 = experiment: Cytotoxicity against human SK-MEL-2 cells assessed as cellular growth at 10 uM by SRB assay
MCF7 = experiment: Cytotoxicity against human MCF7 cells assessed as cellular growth at 10 uM by SRB assay
TK-10 = experiment: Cytotoxicity against human TK10 cells assessed as cellular growth at 10 uM by SRB assay
Malme-3M = experiment: Cytotoxicity against human MALME-3M cells assessed as cellular growth at 10 uM by SRB assay
SF-268 = experiment: Cytotoxicity against human SF268 cells assessed as cellular growth at 10 uM by SRB assay
DU-145 = experiment: Cytotoxicity against human DU145 cells assessed as cellular growth at 10 uM by SRB assay
SF-295 = experiment: Cytotoxicity against human SF295 cells assessed as cellular growth at 10 uM by SRB assay
OVCAR-3 = experiment: Cytotoxicity against human OVCAR3 cells assessed as cellular growth at 10 uM by SRB assay
U-251 = experiment: Cytotoxicity against human U251 cells assessed as cellular growth at 10 uM by SRB assay
SR = experiment: Cytotoxicity against human SR cells assessed as cellular growth at 10 uM by SRB assay

For O=C(NCc1ccc(Cl)cc1)c1[nH]c2ccccc2c1Cl, the Activity (RPMI-8226) was 90.9%, the Activity (BT-549) was 104.79% and the Activity (NCI-H460) was 99.81%. The Activity (MDA-MB-435) was 103.29%, the Activity (MOLT-4) was 88.19% and the Activity (LOX IMVI) was 95.45%. For the same compound, the Activity (CCRF-CEM) was 93.68%, the Activity (786-0) was 106.78% and the Activity (A549) was 94.27%. The Activity (EKVX) was 83.18%, the Activity (SK-OV-3) was 98.27% and the Activity (OVCAR-4) was 100.82%. It also gave an Activity (HCT-116) of 103.25%, an Activity (OVCAR-5) of 116.56% and an Activity (SNB-19) of 108.55%. For the same compound, the Activity (IGROV-1) was 106.79%, the Activity (KM12) was 95.16% and the Activity (A498) was 76.55%. For the same compound, the Activity (SNB-75) was 94.33%, the Activity (T47D) was 96.29% and the Activity (CAKI-1) was 91.63%. For the same compound, the Activity (NCI-H226) was 89.64%, the Activity (MDA-MB-231) was 106.69% and the Activity (UACC-62) was 96.15%. It also gave an Activity (HOP-62) of 101.61%, an Activity (PC-3) of 87.3% and an Activity (HCT-15) of 103.64%. The Activity (HT-29) was 108.03%, the Activity (NCI-H522) was 103.35% and the Activity (UACC-257) was 117.15%. For the same compound, the Activity (SW-620) was 98.38%, the Activity (ACHN) was 104.7% and the Activity (RXF 393) was 104.01%. It also gave an Activity (SK-MEL-5) of 95.97%, an Activity (MDA-MB-468) of 106.81% and an Activity (HL-60(TB)) of 109.59%. It also gave an Activity (SK-MEL-28) of 109.03%, an Activity (M14) of 117.92% and an Activity (HCC 2998) of 104.03%. The Activity (SF-539) was 118.51%, the Activity (OVCAR-8) was 104.08% and the Activity (UO-31) was 80.6%. For the same compound, the Activity (SN12C) was 99.33%, the Activity (NCI-H23) was 95.58% and the Activity [1] was 95.94%. For the same compound, the Activity (K562) was 102.78%, the Activity (Hs-578T) was 100.36% and the Activity (COLO 205) was 104.86%. It also gave an Activity (NCI-H322M) of 113.2%, an Activity (SK-MEL-2) of 111.13% and an Activity (MCF7) of 128.42%. For the same compound, the Activity (TK-10) was 163.4%, the Activity (Malme-3M) was 98.93% and the Activity (SF-268) was 105.1%. The Activity (DU-145) was 105.86%, the Activity (SF-295) was 94.4% and the Activity (OVCAR-3) was 97.31%. For the same compound, the Activity (U-251) was 105.3%.

COc1cccc(C(=O)Nc2nc3ccc(Cl)cc3s2)c1 showed an Activity (RPMI-8226) of 84.4%, an Activity (BT-549) of 101.44% and an Activity (NCI-H460) of 87.74%. It also gave an Activity (MDA-MB-435) of 34%, an Activity (MOLT-4) of 83.68% and an Activity (LOX IMVI) of 94.46%. For the same compound, the Activity (CCRF-CEM) was 81.01%, the Activity (786-0) was 98.19% and the Activity (A549) was 74.01%. It also gave an Activity (EKVX) of 81.47%, an Activity (SK-OV-3) of 90.86% and an Activity (HCT-116) of 92.95%. For the same compound, the Activity (OVCAR-5) was 108.78%, the Activity (SNB-19) was 113.6% and the Activity (IGROV-1) was 74.3%. The Activity (KM12) was 49.84%, the Activity (A498) was 86.56% and the Activity (SNB-75) was 109.63%. It also gave an Activity (T47D) of 79.7%, an Activity (CAKI-1) of 68.42% and an Activity (NCI-H226) of 93.47%. For the same compound, the Activity (MDA-MB-231) was 95.48%, the Activity (UACC-62) was 87.44% and the Activity (HOP-62) was 104.17%. It also gave an Activity (PC-3) of 78.16%, an Activity (HCT-15) of 71.29% and an Activity (HT-29) of 80.12%. For the same compound, the Activity (NCI-H522) was 78.29%, the Activity (UACC-257) was 94.74% and the Activity (SW-620) was 88.38%. It also gave an Activity (ACHN) of 91.34%, an Activity (RXF 393) of 102.21% and an Activity (SK-MEL-5) of 81.61%. For the same compound, the Activity (MDA-MB-468) was 61.26%, the Activity (HL-60(TB)) was 68.73% and the Activity (SK-MEL-28) was 101.98%. For the same compound, the Activity (M14) was 102.54%, the Activity (HCC 2998) was 93.56% and the Activity (SF-539) was 101.47%. The Activity (OVCAR-8) was 98.65%, the Activity (UO-31) was 92.38% and the Activity (SN12C) was 101.74%. For the same compound, the Activity (NCI-H23) was 81.36%, the Activity [1] was 75.07% and the Activity (K562) was 49%. The Activity (Hs-578T) was 110.55%, the Activity (COLO 205) was 105.5% and the Activity (NCI-H322M) was 104.25%. The Activity (SR) was 61.65%, the Activity (SK-MEL-2) was 108.68% and the Activity (MCF7) was 85.29%. It also gave an Activity (TK-10) of 88.7%, an Activity (Malme-3M) of 95.69% and an Activity (SF-268) of 106.92%. For the same compound, the Activity (DU-145) was 104.09%, the Activity (SF-295) was 67.73% and the Activity (OVCAR-3) was 100.09%. It also gave an Activity (U-251) of 87.76%.
